We go through one compound from PMC8245078, “Development of novel benzofuran-isatin conjugates as potential antiproliferative agents with apoptosis inducing mechanism in Colon cancer” (Journal of Enzyme Inhibition and Medicinal Chemistry, 2021).

What all share (type): cell-based
In one test the test system is SW-620. As to the kind of experiment: NCI single dose screening (10 µM). Conditions: Homo sapiens; SW-620, Colon cancer, single dose 10^−5 M; read-out: GI% (cell growth inhibition percentage).
Another test relates to OVCAR-4. Nature of the test: NCI single dose screening (10 µM). Conditions: Homo sapiens; OVCAR-4, Ovarian cancer, single dose 10^−5 M; read-out: GI% (cell growth inhibition percentage).
The next test deals with HCC-2998. Nature of the test: NCI single dose screening (10 µM). The conditions noted are these: Homo sapiens; HCC-2998, Colon cancer, single dose 10^−5 M; read-out: GI% (cell growth inhibition percentage).
A further test concerns UACC-62. Nature of the test: NCI single dose screening (10 µM). The conditions noted are these: Homo sapiens; UACC-62, Melanoma, single dose 10^−5 M; read-out: GI% (cell growth inhibition percentage).
For another test, the system named is NCI-H23. As to the kind of experiment: NCI single dose screening (10 µM). Conditions: Homo sapiens; NCI-H23, Non-small cell lung cancer, single dose 10^−5 M; read-out: GI% (cell growth inhibition percentage).
In test [1] the test system is NCI-55 cancer cell line panel. Nature of the test: NCI single dose screening (10 µM), whole panel. Conditions: Homo sapiens; mean over NCI-55 cell lines, single dose 10^−5 M; read-out: Mean inhibition, % (mean GI%).
The next test relates to HCT-116. As to the kind of experiment: NCI single dose screening (10 µM). Conditions: Homo sapiens; HCT-116, Colon cancer, single dose 10^−5 M; read-out: GI% (cell growth inhibition percentage).
The next test has as its system U251. Nature of the test: NCI single dose screening (10 µM). The conditions noted are these: Homo sapiens, U-251; U251, CNS cancer, single dose 10^−5 M; read-out: GI% (cell growth inhibition percentage).
The next test concerns COLO 205. As to the kind of experiment: NCI single dose screening (10 µM). Conditions: Homo sapiens; COLO 205, Colon cancer, single dose 10^−5 M; read-out: GI% (cell growth inhibition percentage).
The next test concerns SF-539. As to the kind of experiment: NCI single dose screening (10 µM). Conditions: Homo sapiens; SF-539, CNS cancer, single dose 10^−5 M; read-out: GI% (cell growth inhibition percentage).
Another test has as its system SNB-19. Nature of the test: NCI single dose screening (10 µM). The conditions noted are these: Homo sapiens; SNB-19, CNS cancer, single dose 10^−5 M; read-out: GI% (cell growth inhibition percentage).
Another test relates to RXF 393. Nature of the test: NCI single dose screening (10 µM). The conditions noted are these: Homo sapiens; RXF 393, Renal cancer, single dose 10^−5 M; read-out: GI% (cell growth inhibition percentage).
Another test has as its system HOP-92. Nature of the test: NCI single dose screening (10 µM). The conditions noted are these: Homo sapiens; HOP-92, Non-small cell lung cancer, single dose 10^−5 M; read-out: GI% (cell growth inhibition percentage).
The next test concerns OVCAR-8. Nature of the test: NCI single dose screening (10 µM). Conditions: Homo sapiens; OVCAR-8, Ovarian cancer, single dose 10^−5 M; read-out: GI% (cell growth inhibition percentage).
The subject of a further test is UACC-257. Nature of the test: NCI single dose screening (10 µM). The conditions noted are these: Homo sapiens; UACC-257, Melanoma, single dose 10^−5 M; read-out: GI% (cell growth inhibition percentage).
For a further test, the system named is DU-145. As to the kind of experiment: NCI single dose screening (10 µM). The conditions noted are these: Homo sapiens; DU-145, Prostate cancer, single dose 10^−5 M; read-out: GI% (cell growth inhibition percentage).
The subject of a further test is NCI-H522. As to the kind of experiment: NCI single dose screening (10 µM). The conditions noted are these: Homo sapiens; NCI-H522, Non-small cell lung cancer, single dose 10^−5 M; read-out: GI% (cell growth inhibition percentage).
Another test deals with KM12. As to the kind of experiment: NCI single dose screening (10 µM). Conditions: Homo sapiens; KM12, Colon cancer, single dose 10^−5 M; read-out: GI% (cell growth inhibition percentage).
In another test the test system is EKVX. Nature of the test: NCI single dose screening (10 µM). The conditions noted are these: Homo sapiens, Non-small cell lung cancer, single dose 10^−5 M, read-out: GI% (cell growth inhibition percentage).
A further test relates to ACHN. As to the kind of experiment: NCI single dose screening (10 µM). The conditions noted are these: Homo sapiens, Renal cancer, single dose 10^−5 M, read-out: GI% (cell growth inhibition percentage).
Another test has as its system T-47D. Nature of the test: NCI single dose screening (10 µM). The conditions noted are these: Homo sapiens, T47D; T-47D, Breast cancer, single dose 10^−5 M; read-out: GI% (cell growth inhibition percentage).
The next test relates to M14. As to the kind of experiment: NCI single dose screening (10 µM). Conditions: Homo sapiens; M14, Melanoma, single dose 10^−5 M; read-out: GI% (cell growth inhibition percentage).

Bounds are passed on as bounds.

In the case of `Cc1c(C(=O)N/N=C2\C(=O)N(C)c3ccccc32)oc2ccccc12` [Compound 7a], the inhibition at 10 µM with SW-620 was 30.6%; in the test with OVCAR-4, less than 10%; with HCC-2998 it was less than 10%; in the test on UACC-62, less than 10%; in the test on NCI-H23, less than 10%; in [1], 0.09%. Further, the inhibition at 10 µM in the test on HCT-116, in the test with U251, with COLO 205, in the test on SF-539, in the test with SNB-19 and in the test with RXF 393 was less than 10% throughout. Further, the inhibition at 10 µM in the test with HOP-92, with OVCAR-8, with UACC-257, in the test with DU-145, in the test on NCI-H522 and in the test with KM12 was less than 10% each time. The inhibition at 10 µM in the test on EKVX was 25.1%; in the test on ACHN, less than 10%; with T-47D, 21.8%; with M14, less than 10%.
